Laboratory results published in patent US9902728B2, “Pyrrolo and pyrazolopyrimidines as ubiquitin-specific protease 7 inhibitors” (Forma Therapeutics, Inc., priority 2014, dated 2018).

Target: T1, USP7 (Homo sapiens, UniProt Q93009)
T1 construct: USP7, construct USP7 (208-1102) 6*His, Viva Biotech; 6xHis (C); purchased Viva Biotech
Assay: USP7 Assay A (Ubitquin-Rhodamine 110 Assay)
Format: biochemical
Settings: USP7 activity in USP7 assay A and B (table does not say which assay per compound); read-out: USP7_IC50
Summary of the method: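 Enzyme and compound sat together for 30 min before Ub-Rh110 was added, in buffer of 20 mM Tris-HCl (pH 8.0), 1 mM GSH, 0.03% BGG and 0.01% Triton X-100.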

T1 sequence (Q93009 208-1102): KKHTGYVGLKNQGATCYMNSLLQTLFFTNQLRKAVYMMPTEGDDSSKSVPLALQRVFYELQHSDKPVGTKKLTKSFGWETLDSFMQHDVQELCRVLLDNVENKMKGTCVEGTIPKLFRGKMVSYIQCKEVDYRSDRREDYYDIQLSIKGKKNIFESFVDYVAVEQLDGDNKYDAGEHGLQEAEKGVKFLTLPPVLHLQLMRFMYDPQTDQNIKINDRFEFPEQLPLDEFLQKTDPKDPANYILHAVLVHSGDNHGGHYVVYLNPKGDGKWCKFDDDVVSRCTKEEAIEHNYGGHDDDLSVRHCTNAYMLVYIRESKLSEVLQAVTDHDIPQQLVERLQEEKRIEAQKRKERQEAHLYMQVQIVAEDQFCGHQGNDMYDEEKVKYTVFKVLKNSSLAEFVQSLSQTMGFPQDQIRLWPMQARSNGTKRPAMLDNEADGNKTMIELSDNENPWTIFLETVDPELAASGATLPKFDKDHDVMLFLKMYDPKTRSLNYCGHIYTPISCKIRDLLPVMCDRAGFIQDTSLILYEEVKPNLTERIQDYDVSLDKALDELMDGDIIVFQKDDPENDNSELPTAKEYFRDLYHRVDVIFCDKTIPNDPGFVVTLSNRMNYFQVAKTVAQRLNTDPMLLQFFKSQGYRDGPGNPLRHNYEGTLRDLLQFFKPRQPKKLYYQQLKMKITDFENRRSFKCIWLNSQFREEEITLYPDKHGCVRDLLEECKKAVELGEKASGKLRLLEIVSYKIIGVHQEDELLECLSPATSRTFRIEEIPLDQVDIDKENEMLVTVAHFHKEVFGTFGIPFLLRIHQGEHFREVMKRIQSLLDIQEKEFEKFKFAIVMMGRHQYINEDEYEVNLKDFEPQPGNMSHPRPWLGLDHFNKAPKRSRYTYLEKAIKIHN

Which IC50 does the source give for `Cn1ccc2c(=O)n(CC3(O)CCN(C(=O)CC(C(F)F)n4ccc(F)n4)CC3)cnc21` (single isomer, unassigned) [Compound I-1696] here?
The IC50 was > 10000 nM.

For `O=C(C1CC1)N1CCC(O)(Cn2cnc3c(cnn3-c3ccc(-c4ccc5[nH]ccc5n4)cc3)c2=O)CC1` [Compound I-1768], which IC50 is on record?
Its IC50 is 200 to 1000 nM.

For `O=C(c1ccc(F)cc1)N1CCC(O)(Cn2cnc3c(cnn3-c3ccc(N4CCCn5nccc54)cc3)c2=O)CC1` [Compound I-1654], which IC50 is on record?
The IC50 was 200 to 1000 nM.

How did the IC50 turn out when `CC1(COc2ccc(-n3ncc4c(=O)n(CC5(O)CCN(C(=O)c6cnc(C7CC7)o6)CC5)cnc43)cc2)CCC1` [Compound I-1508] was run?
Its IC50 is 200 to 1000 nM.

Which IC50 does the source give for `CC1(C(=O)N2CCC(O)(Cn3cnc4c(cnn4-c4ccc(-c5cnn(C(F)F)c5)cc4)c3=O)CC2)CC1` [Compound I-489] here?
The IC50 was 200 to 1000 nM.

`C[C@]1(O)CCN(c2ccc(-n3ncc4c(=O)n(CC5(O)CCN(C(=O)C[C@@H](C(F)F)n6cccn6)CC5)cnc43)cc2)C1` [Compound I-835] was tested. Which IC50 did it give?
Its IC50 is < 200 nM.

`O=C(c1ccc(-n2ccnc2)cc1)N1CCC(O)(Cn2cnc3c(cnn3-c3ccc(Cl)cc3)c2=O)CC1` [Compound I-1088] was tested. Which IC50 did it give?
Its IC50 is 200 to 1000 nM.

Which IC50 does the source give for `O=C(C[C@@H](C(F)F)n1ccc(Cl)n1)N1CCC(O)(Cn2cnc3c(cnn3-c3ccc(F)cc3)c2=O)CC1` [Compound I-732] here?
The IC50 was 1000 to 10000 nM.

For `O=C(c1cnc(C2CC2)o1)N1CCC(O)(Cn2cnc3c(cnn3-c3ccc(-n4cccn4)cc3)c2=O)CC1` [Compound I-780], which IC50 is on record?
The IC50 was < 200 nM.

Which IC50 does the source give for `O=C(c1ccc(F)cc1)N1CCC(O)(C(CO)n2cnc3c(cnn3-c3ccc(F)cc3)c2=O)CC1` (stereo not shown) [Compound I-720] here?
The IC50 was 1000 to 10000 nM.

For `O=C(c1ccc(-n2cncn2)cc1)N1CCC(O)(Cn2cnc3c(cnn3-c3ccc(Cl)cc3)c2=O)CC1` [Compound I-1090], which IC50 is on record?
Its IC50 is 200 to 1000 nM.

How did the IC50 turn out when `O=C(c1cccn1Cc1ccc(F)cc1)N1CCC(O)(Cn2cnc3c(cnn3-c3ccc(F)cc3)c2=O)CC1` [Compound I-558] was run?
The IC50 was 200 to 1000 nM.

How did the IC50 turn out when `O=C(c1cnc(NC2CC2)o1)N1CCC(O)(Cn2cnc3c(cnn3-c3ccc(Cl)cc3)c2=O)CC1` [Compound I-771] was run?
The IC50 was 200 to 1000 nM.

With `O=C(C1CCC(Oc2ncccn2)CC1)N1CCC(O)(Cn2cnc3c(cnn3-c3ccc(F)cc3)c2=O)CC1` (stereo not shown) [Compound I-747] as the compound, how does the IC50 read?
The IC50 was 1000 to 10000 nM.

`O=C(C[C@H](C(F)F)n1cc(F)cn1)N1CCC(O)(Cn2cnc3c(cnn3-c3ccc(F)cc3)c2=O)CC1` [Compound I-1159] was tested. Which IC50 did it give?
The IC50 was < 200 nM.

`O=C(c1nnc(C2CC2)o1)N1CCC(O)(Cn2cnc3c(cnn3-c3ccc(F)cc3)c2=O)CC1` [Compound I-556] was tested. Which IC50 did it give?
The IC50 was 1000 to 10000 nM.

How did the IC50 turn out when `O=C(c1ccc(F)cc1)N1CCC(O)(Cn2cnc3c(cnn3-c3ccc(-c4cnn(C5CC5)c4)cc3)c2=O)CC1` [Compound I-1746] was run?
The IC50 was 200 to 1000 nM.

For `CN1CCC(Oc2ccc(C(=O)N3CCC(O)(Cn4cnc5c(cnn5-c5ccc(Cl)cc5)c4=O)CC3)cc2)CC1` [Compound I-1096], which IC50 is on record?
The IC50 was 1000 to 10000 nM.

Same assay, conditions: USP7 assay A and B (table does not say which assay per compound); read-out: USP7_IC50

With `Cc1ccc(C(=O)N2CCC(O)(Cn3cnc4c(cnn4-c4ccc(Cl)cc4)c3=O)CC2)cc1F` [Compound I-1523] as the compound, how does the IC50 read?
The IC50 was 1000 to 10000 nM.

With `Cc1ccc(-n2ncc3c(=O)n(CC4(O)CCN(C(=O)c5ccc(OC6CCNCC6)cc5)CC4)cnc32)cc1` [Compound I-1145] as the compound, how does the IC50 read?
The IC50 was 1000 to 10000 nM.

For `CN1CCC(Oc2ccc(-c3ccc(-n4ncc5c(=O)n(CC6(O)CCN(C(=O)C7CC7)CC6)cnc54)cc3)cc2)C1` (stereo not shown) [Compound I-678], which IC50 is on record?
The IC50 was 200 to 1000 nM.

`COC1(C)CCN(c2cc(-n3ncc4c(=O)n(CC5(O)CCN(C(=O)C6CC6)CC5)cnc43)ccc2F)C1` (single isomer, unassigned) [Compound I-971] was tested. Which IC50 did it give?
The IC50 was 200 to 1000 nM.

How did the IC50 turn out when `O=C(N[C@@H]1CNCC1F)N1CCC(O)(Cn2cnc3c(cnn3-c3ccc(-c4ccccc4)cc3)c2=O)CC1` (stereo partly shown) [Compound I-663] was run?
The IC50 was > 10000 nM.

For `O=C(c1ccc(OC(F)F)cc1)N1CCC(O)(Cn2cnc3c(cnn3-c3cccc(CO)c3)c2=O)CC1` [Compound I-989], which IC50 is on record?
Its IC50 is 1000 to 10000 nM.

How did the IC50 turn out when `O=C(O)c1ccc(C(=O)N2CCC(O)(Cn3cnc4c(cnn4-c4ccccc4)c3=O)CC2)cc1` [Compound I-272] was run?
Its IC50 is 1000 to 10000 nM.

`O=C(c1ccc2c(c1)CCO2)N1CCC(O)(Cn2cnc3c(cnn3-c3ccc(Cl)cc3)c2=O)CC1` [Compound I-1521] was tested. Which IC50 did it give?
The IC50 was 1000 to 10000 nM.

For `O=C(C1CC1)N1CCC(O)(Cn2cnc3c(cnn3-c3cccc(N4CCNCC4)c3)c2=O)CC1` [Compound I-498], which IC50 is on record?
Its IC50 is < 200 nM.

How did the IC50 turn out when `CS(=N)(=O)c1ccc(-n2ncc3c(=O)n(CC4(O)CCN(C(=O)c5ccc(F)cc5)CC4)cnc32)cc1` (single isomer, unassigned) [Compound I-997, 5-((1-(4-fluorobenzoyl)-4-hydroxypiperidin-4-yl)methyl)-1-(4-(S-methylsulfonimidoyl)phenyl)-1,5-dihydro-4H-pyrazolo[3,4-d]pyrimidin-4-one] was run?
Its IC50 is 1000 to 10000 nM.

`O=C(c1ccc(C(F)(F)F)nc1)N1CCC(O)(Cn2cnc3c(cnn3-c3ccc(F)cc3)c2=O)CC1` [Compound I-422] was tested. Which IC50 did it give?
The IC50 was > 10000 nM.

For `O=C(C1CC1)N1CCC(O)(Cn2cnc3c(cnn3-c3ccc(N4CCN5CCCCC5C4)cc3)c2=O)CC1` (stereo not shown) [Compound I-1584], which IC50 is on record?
Its IC50 is 200 to 1000 nM.

`C=CC(=O)N1CC[C@]1(C)C(=O)N1CCC(O)(Cn2cnc3c(cnn3-c3ccc(F)cc3)c2=O)CC1` [Compound I-580] was tested. Which IC50 did it give?
Its IC50 is 200 to 1000 nM.

How did the IC50 turn out when `O=C(C1CC1)N1CCC(O)(Cn2cnc3c(cnn3-c3ccc(-c4ccc(O[C@@H]5CCNC5)cc4)cc3)c2=O)CC1` [Compound I-842] was run?
The IC50 was 200 to 1000 nM.

How did the IC50 turn out when `Cn1ncc2c(=O)n(CC3(O)CCN(C(=O)C[C@H](c4ccccc4)C(F)(F)F)CC3)cnc21` [Compound I-143] was run?
The IC50 was 1000 to 10000 nM.

With `C#CC(=O)NC1CC(C(=O)N2CCC(O)(Cn3cnc4c(cnn4-c4ccc(-c5ccccc5)cc4)c3=O)CC2)C1` (stereo not shown) [Compound I-658] as the compound, how does the IC50 read?
Its IC50 is 1000 to 10000 nM.

With `CN(C)C(=O)N1CCC(O)(Cn2cnc3c(cnn3-c3ccc(F)c(-c4ccc(F)cc4)c3)c2=O)CC1` [Compound I-475] as the compound, how does the IC50 read?
The IC50 was 1000 to 10000 nM.

Which IC50 does the source give for `CO[C@@H]1CCN(c2ccc(-n3ncc4c(=O)n(CC5(O)CCN(C(=O)N(C)C)CC5)cnc43)cc2)C1` [Compound I-1138] here?
Its IC50 is 1000 to 10000 nM.

How did the IC50 turn out when `C[C@@H](CC(=O)N1CCC(O)(Cn2cnc3c(cnn3-c3ccccc3)c2=O)CC1)n1cccn1` [Compound I-176] was run?
The IC50 was 1000 to 10000 nM.

How did the IC50 turn out when `CN1CCCCC1COc1ccc(-n2ncc3c(=O)n(CC4(O)CCN(C(=O)c5ccc(F)cc5)CC4)cnc32)cc1` (stereo not shown) [Compound I-1313] was run?
Its IC50 is 200 to 1000 nM.

For `C[C@@H](n1cnc2c(cnn2-c2ccc(F)cc2)c1=O)C1(O)CCN(C(=O)c2ccc(F)cc2)CC1` [Compound I-44], which IC50 is on record?
Its IC50 is 1000 to 10000 nM.

Which IC50 does the source give for `CC1(C(=O)N2CCC(O)(Cn3cnc4c(cnn4-c4ccccc4)c3=O)CC2)CC1` [Compound I-271] here?
The IC50 was 1000 to 10000 nM.

For `C[C@H](CC(=O)N1CCC(O)(Cn2cnc3c(cnn3-c3ccc(F)cc3)c2=O)CC1)n1cc2c(n1)CCC2` [Compound I-520], which IC50 is on record?
The IC50 was > 10000 nM.

Which IC50 does the source give for `CC1(C(=O)N2CCC(O)(Cn3cnc4c(cnn4-c4ccc(-c5cnn(C(F)F)c5)cc4)c3=O)CC2)CC1` [Compound I-1800] here?
Its IC50 is < 200 nM.

Which IC50 does the source give for `CC1(C)CC(NC(=O)N2CCC(O)(Cn3cnc4c(cnn4-c4ccc(F)cc4)c3=O)CC2)C1` [Compound I-482] here?
Its IC50 is > 10000 nM.

`O=C(C1CC1)N1CCC(O)(Cn2cnc3c(cnn3-c3ccc(Cl)cc3Cl)c2=O)CC1` [Compound I-264] was tested. Which IC50 did it give?
Its IC50 is > 10000 nM.

Which IC50 does the source give for `CC(O)(c1ccc(C(=O)N2CCC(O)(Cn3cnc4c(cnn4-c4ccccc4)c3=O)CC2)cc1)C(F)(F)F` (stereo not shown) [Compound I-291] here?
Its IC50 is 1000 to 10000 nM.

Which IC50 does the source give for `C[C@H](CC(=O)N1CCC(O)(Cn2cnc3c(cnn3-c3ccccn3)c2=O)CC1)c1ccccc1` [Compound I-70] here?
Its IC50 is 200 to 1000 nM.
